In ChEMBL document CHEMBL1201862, “PubChem BioAssay data set” (2004) one finds IC50, EC50 and AC50 data, which are given here for 6 compounds.

SMILES strings stand for the structures. The source made the active and inactive calls.

A short description of assay [1]: Reduced DLD-1 viability, concentration-response, CellTiter-Glo luminescence (AID 1117352). Type of assay: functional. Background: In ATP-based viability assays light output follows the ATP content of the culture.
Assay [2] can be described thus: SNU-C1 cell viability reduction, dose response, CellTiter-Glo luminescence (AID 1117323). In kind it is functional, cell-based.
Assay [3] can be described thus: cytotoxicity toward HCT116 cells – cell-based, CellTiter-Glo luminescence, IC50, dose response (AID 1117332). Type of assay: functional. The conditions noted are these: HCT-116.
Assay [4] is described as follows: CellTiter-Glo luminescence survival assay, SW480 colon tumor line, concentration-response curve, half-maximal inhibitory concentration (AID 1117338). Type of assay: functional.
Assay [5] can be described thus: HCT116 cell viability decrease, GSK3B pretreatment – CellTiter-Glo, IC50, dose response (AID 1117339). Type of assay: functional. The following applies: HCT-116.
Assay [6] in a line: RKO cell viability reduction, dose response, CellTiter-Glo luminescence (AID 1117322). Type of assay: functional.
Assay [7] in a line: cytotoxicity toward HT-29 cells – cell-based, CellTiter-Glo luminescence, IC50, dose response (AID 1117330). In kind it is functional.
A short description of assay [8]: cytotoxicity toward Colo320 cells – cell-based, CellTiter-Glo luminescence, IC50, dose response (AID 1117334). In kind it is functional. The conditions noted are these: COLO 320.
Assay [9] can be described thus: HEK-293T viability loss, compound-treated – cell-based, uHTS hits, cytotoxicity control for B/T-cell NF-kB inhibitor project, dose response (AID 489019).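 Further: IC50 reflects cytotoxicity as loss of cell viability.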 In kind it is functional.
In another assay the test system is Jurkat. Nature of the assay: blockers of NF-kB activation in T cells – Jurkat, luciferase reporter, luminescence, B- and T-cell, dose response (AID 489004).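 Further: NF-kB luciferase reporter Jurkat cells stimulated with PMA plus ionomycin.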 Type of assay: functional, cell-based. The following applies: Homo sapiens. A general note: A reporter such as luciferase makes a cellular process visible.
For a further assay, the system named is HT-1080. Nature of the assay: HT1080 cell viability loss – fluorescence readout (AID 620). In kind it is functional, cell-based. The following applies: Homo sapiens.
A short description of assay [10]: Dd2 parasite growth inhibition in erythrocytes – SYBR Green, dry powder samples, set 9, dose response (AID 1159568). Type of assay: functional, cell-based.
A further assay has as its target Cytochrome P450 2C19 (Homo sapiens, UniProt P33261). Nature of the assay: Cytochrome panel assay with activity outcomes. Panel member name: p450-cyp2c19 Compounds with AC50 equal or less than 10 uM are considered active. In kind it is functional. The following applies: read-out: AC50.
For a further assay, the target named is T1, Cytochrome P450 1A2 (Homo sapiens, UniProt P05177).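 Further: PubChem cytochrome P450 panel assay, CYP1A2 panel member.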
T1 sequence (P05177 whole entry): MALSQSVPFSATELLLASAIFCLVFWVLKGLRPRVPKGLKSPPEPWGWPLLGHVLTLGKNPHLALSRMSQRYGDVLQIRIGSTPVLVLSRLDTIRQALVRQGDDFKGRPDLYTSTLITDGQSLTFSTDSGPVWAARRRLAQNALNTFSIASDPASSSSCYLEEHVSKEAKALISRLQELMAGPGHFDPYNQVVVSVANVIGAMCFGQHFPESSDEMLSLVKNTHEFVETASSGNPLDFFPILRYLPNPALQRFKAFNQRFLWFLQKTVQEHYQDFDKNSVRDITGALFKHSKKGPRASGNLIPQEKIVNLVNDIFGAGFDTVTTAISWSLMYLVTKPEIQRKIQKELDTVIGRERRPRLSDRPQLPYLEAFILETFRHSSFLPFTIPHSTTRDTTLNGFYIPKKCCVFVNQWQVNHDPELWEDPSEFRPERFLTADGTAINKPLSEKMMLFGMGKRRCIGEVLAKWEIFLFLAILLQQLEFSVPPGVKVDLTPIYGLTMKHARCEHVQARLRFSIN

Assay [11] concerns the target Mitogen-activated protein kinase 10 (Homo sapiens, UniProt P53779). Put plainly: Dose response biochemical screening assay for inhibitors of c-Jun N-Terminal Kinase 3 (JNK3). [Related pubchem assays: 746 ].
The target of assay [12] is T2, Ubiquitin-conjugating enzyme E2 N (Homo sapiens, UniProt P61088).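 Further: Dose-response confirmation in a TR-FRET assay detecting UBC13-driven polyubiquitin chain formation, inhibition measured.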
T2 sequence (P61088 whole entry): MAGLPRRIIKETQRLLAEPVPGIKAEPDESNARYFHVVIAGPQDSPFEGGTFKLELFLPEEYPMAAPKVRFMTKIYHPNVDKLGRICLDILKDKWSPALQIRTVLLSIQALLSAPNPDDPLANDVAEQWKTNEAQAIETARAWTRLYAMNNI
In kind it is functional.

A short description of assay [13]: PAX5 cellular inhibition readout – cell-based, plate reader, dry powder samples, selectivity assay for PAX8 inhibitor project, dose response (AID 743047).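 Further: HEK293 cells carrying a Pax5 driven CD19 promoter luciferase reporter; potency of inhibitors that lower reporter luminescence.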 In kind it is functional.
In a further assay the target is Paired box protein Pax-8 (Homo sapiens, UniProt Q06710). Nature of the assay: PAX8 transcriptional activity inhibition in RMG-I – RMG-I cells, luciferase, cherry-pick, dose response (AID 687027).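 Further: luciferase reporter driven by Pax8 target thyroperoxidase promoter measured by SteadyGlo luminescence.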 In kind it is functional, cell-based.
Sequence of Paired box protein Pax-8 (Q06710 whole entry): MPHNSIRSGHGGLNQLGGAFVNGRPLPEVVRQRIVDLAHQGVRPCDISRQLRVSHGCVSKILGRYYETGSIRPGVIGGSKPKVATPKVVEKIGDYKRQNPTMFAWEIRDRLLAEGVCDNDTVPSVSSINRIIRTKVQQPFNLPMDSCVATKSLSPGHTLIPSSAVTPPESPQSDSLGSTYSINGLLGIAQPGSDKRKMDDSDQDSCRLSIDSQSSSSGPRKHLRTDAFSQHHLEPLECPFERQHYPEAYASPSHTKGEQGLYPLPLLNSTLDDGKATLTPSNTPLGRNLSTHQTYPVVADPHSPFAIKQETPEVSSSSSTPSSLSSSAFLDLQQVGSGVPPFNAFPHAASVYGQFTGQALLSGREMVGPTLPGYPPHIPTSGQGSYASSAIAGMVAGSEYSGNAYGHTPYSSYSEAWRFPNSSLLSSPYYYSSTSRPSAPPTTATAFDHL
The nature of assay [14]: Dd2 malaria parasite growth inhibition potency – SYBR Green, dry powder samples, dose response (AID 1159566).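 Further: potency for growth inhibition with lower SYBR green DNA signal.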 In kind it is functional, cell-based.
A short description of assay [15]: growth inhibition of yeast DHODH-expressing 3D7 parasites – SYBR Green, dry powder samples, dose response (AID 1159570).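 Further: parasite growth measured after 72 hours of compound exposure.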 In kind it is functional, cell-based.
Assay [16] is described as follows: inhibitors acting on PAX2 in cells – cell-based, plate reader, dry powder samples, selectivity assay for PAX8 inhibitor project, dose response (AID 743048).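 Further: HEK293 cells carrying a WT1 promoter luciferase reporter driven by expressed Pax2; potency is for inhibition of Pax2 driven reporter signal.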 In kind it is functional.
Assay [17] is described as follows: PAX8-dependent cell viability loss – plate reader, dry powder, dose response (AID 743049). In kind it is functional, cell-based.
Assay [18] in a line: blockers of HIV-1 envelope-mediated cell-cell fusion – cherry-pick, dose response (AID 652057). Type of assay: functional, cell-based.
A short description of assay [19]: toxicity to human hepatoma HepG2 cells – cell-based, cherry-picked samples, cytotoxicity control, dose response (AID 1159577). Type of assay: functional.
A short description of assay [20]: blockers of HIV-1 ZM109 envelope-driven cell-cell fusion – HeLa effector, CEM target cells, luciferase, cherry-pick, dose response (AID 652058).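 Further: luciferase signal from HIV-1 Env mediated cell-cell fusion of effector and target cells.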 In kind it is functional, cell-based.
Assay [21] can be described thus: COV434 cell viability loss – plate reader, dry powder, SA7, cytotoxicity control for PAX8 inhibitor project, dose response (AID 743145). In kind it is functional, cell-based.
The nature of assay [22]: growth inhibition of PfATP4-mutant resistant parasites – NITD609-resistant line, SYBR Green, dry powder, dose response (AID 1159571).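 Further: parasites synchronized at ring stage by sorbitol before testing.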 Type of assay: functional, cell-based.
Assay [23] in a line: HIV-1 AD8 envelope cell-cell fusion blockers – cherry-pick, dose response (AID 652062).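 Further: luciferase signal from cell-cell fusion driven by HIV-1 clade B AD8 Env; potency is for inhibitors of fusion seen as a drop in luminescence.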 Type of assay: functional, cell-based.
A short description of assay [24]: OVCAR4 cell viability loss – plate reader, dry powder, SA11, cytotoxicity control for PAX8 inhibitor project, dose response (AID 743150). In kind it is functional, cell-based. The following applies: OVCAR-4.
Assay [25] can be described thus: P. falciparum Dd2 growth inhibitors, dose response, SYBR Green, cherry-picked samples (AID 1159567). Type of assay: functional, cell-based.

Sequence of Mitogen-activated protein kinase 10 (P53779 whole entry): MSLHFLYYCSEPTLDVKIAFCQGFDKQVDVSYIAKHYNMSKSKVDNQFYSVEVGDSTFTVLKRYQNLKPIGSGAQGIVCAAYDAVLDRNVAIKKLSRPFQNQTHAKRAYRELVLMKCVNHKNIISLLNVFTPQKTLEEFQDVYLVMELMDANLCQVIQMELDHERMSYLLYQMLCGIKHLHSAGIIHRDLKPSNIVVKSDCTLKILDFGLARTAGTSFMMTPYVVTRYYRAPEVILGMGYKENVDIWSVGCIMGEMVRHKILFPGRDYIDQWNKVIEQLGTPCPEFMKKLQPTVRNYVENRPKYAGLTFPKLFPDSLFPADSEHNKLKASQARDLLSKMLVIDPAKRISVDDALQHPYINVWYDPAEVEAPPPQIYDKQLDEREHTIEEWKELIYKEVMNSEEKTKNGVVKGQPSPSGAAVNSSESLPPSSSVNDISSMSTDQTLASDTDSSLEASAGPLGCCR
Sequence of Cytochrome P450 2C19 (P33261 whole entry): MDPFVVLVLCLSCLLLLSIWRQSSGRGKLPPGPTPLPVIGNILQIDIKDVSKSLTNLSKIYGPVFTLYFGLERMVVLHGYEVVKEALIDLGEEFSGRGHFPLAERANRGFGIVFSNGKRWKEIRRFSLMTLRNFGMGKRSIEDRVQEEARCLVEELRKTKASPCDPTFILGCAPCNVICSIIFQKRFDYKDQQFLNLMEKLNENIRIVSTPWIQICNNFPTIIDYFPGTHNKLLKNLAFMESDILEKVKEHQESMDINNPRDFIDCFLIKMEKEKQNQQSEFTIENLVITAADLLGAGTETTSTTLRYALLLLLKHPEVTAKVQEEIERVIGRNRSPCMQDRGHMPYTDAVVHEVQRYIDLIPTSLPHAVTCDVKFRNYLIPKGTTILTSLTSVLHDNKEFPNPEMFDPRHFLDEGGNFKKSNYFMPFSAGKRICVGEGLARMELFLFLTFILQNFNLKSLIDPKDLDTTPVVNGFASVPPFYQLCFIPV

On to `Cc1ccc(C(=O)c2cc(O)c(O)c([N+](=O)[O-])c2)cc1` [TOLCAPONE], for which the IC50 in assay [1] was 6.14 µM (inactive); in assay [2], 4.54 µM (active); in [3] it was 2.29 µM (active); in [4], 4.64 µM (active); in assay [5], 0.265 µM (active); in [6] it was 1.88 µM (active). Also, the values for the IC50 in assay [7] and in assay [8] were > 20 µM (inactive) and 2.5 µM (active), respectively.
For the compound `N#Cc1c(NC(=O)CSc2nc[nH]n2)sc2c1CCCC2`, the IC50 was > 80 µM (inactive) in assay [9] and 0.64 µM (active) in the assay on Jurkat. In the assay with HT-1080, the concentration giving a half-maximal response (EC50) is on record as > 50 µM (not active).
Turning to `C[C@@H]1CN([C@@H](C)CO)C(=O)c2cc(NC(=O)Nc3ccc4c(c3)OCO4)ccc2O[C@@H](C)CCCCO[C@H]1CN(C)S(=O)(=O)c1ccccc1`, in assay [10], the half-maximal activity concentration (AC50) was 4.34 µM (active).
With `Cc1cc(C(F)F)n2ncc(C(=O)NCc3ccccc3C(F)(F)F)c2n1`, the concentration at half-maximal activity (AC50) is 6.31 µM (inconclusive) at Cytochrome P450 2C19 and 0.708 µM (inconclusive) on Cytochrome P450 1A2. Further, the 50% inhibitory concentration (IC50) in assay [11] is listed as 26.2 µM (not active).
Consider `CCOC(=O)CSc1nc2ccccc2c(=O)n1CCCCCC(=O)NCc1ccco1`, for which the IC50 in [11] is 43.3 µM (not active); in assay [12], > 20 µM (inactive).
As for `COc1cccc(C#Cc2ccc([C@H]3[C@@H](CO)N(C(=O)C4CCCC4)[C@H]3C#N)cc2)c1`, the concentration at half-maximal activity (AC50) is 30.1 µM (active) in assay [13]; 3.15 µM (active) at Paired box protein Pax-8; 0.212 µM (active) in [14]; 0.409 µM (active) in assay [15]; 30.8 µM (active) in [16]; 5.77 µM (active) in assay [17]. The half-maximal activity concentration (AC50) in [18] is 17.8 µM (active); in [19] it was > 39 µM (inactive); in assay [20], 17 µM (active); in assay [21], 0.00447 µM (active); in assay [22], 0.454 µM (active); in [23], 20 µM (active). In addition, the AC50 in [24] is 37.9 µM (active); in assay [25], 0.997 µM (active).

Broadly, the IC50 is the point on the concentration scale where inhibition reaches its midpoint. A word on the EC50: it is the concentration giving half of the maximal effect. Higher therefore signals lower potency in that assay. What is called AC50 is the midpoint of the concentration-response curve, whichever way the signal moves.
